Measured values reported in patent US20240262865A1, “Calcium independent phosphatidylserine binding compounds for detecting phosphatidylserine positive cells” (priority 2023, published 2024).
BODIPY = fluorogenic core (…diaza-s-indacene), attached to Trp by a spacer-free C—C linkage

How the values were obtained:
PS positive cells [1] = assay: Flow cytometry staining of PS positive cells on one day old mouse thymocytes, side by side with Apotracker Green and Annexin V; type: cell-based; conditions: one day old C57BL/6 mouse thymocytes, Atto 647 Item-2 28 pM/test and Apotracker 400 nM/test in PBS without Ca2+, Alexa 647 Annexin V in Annexin V binding buffer, Sytox Blue
Text: Whether an agent is considered to be a PS binding agent or to have a PS binding activity, it can be determined by using a flow cytometer to detect the PS binding activity of said agent which has been illustrated in the art. Thereby, PS positive cells can be used in such an assay, wherein the number of stained cells may be compared to the reference agent Apotracker Green and/or Annexin V, in accordance with the present invention.
To validate the Atto 647 Item-2 by flow cytometry, one day old C57BLU6 mouse thymocytes were side by side incubated with 28 pM/test of Atto 647 Item-2 and Sytox Blue or 400 nM/test of Apotracker and Sytox Blue in PBS without Ca^2+ or 5 μLtest of Alexa 647 Annexin V and of Sytox Blue in Annexin V binding buffer for 15 minutes at room temperature, then the cells were analyzed with NovoCyte Quanteon flow cytometry without wash. Debris were gated out based on cell density plot in a lower level of forward scatter. The two-parameter density plots show Atto 647 Item-2 or Apotracker Green or Annexin V versus Sytox Blue. Sytox Blue is an impermeant blue-emitting nucleic acid indicator which is used for indicating the dead cells. Sytox Blue was used at 20 nM/test in herein.
The cells were analyzed with NovoCyte Quanteon flow cytometry without wash.

PS positive cells [2] = assay: Flow cytometry of Atto 647 Item-2 stained U937 cells before and after 2% PFA fixation; type: cell-based; conditions: U937 cells in PBS without Ca2+
Method: In order to validate if the PS positive cells stained with Atto 647 Item-2 are fixable, the fresh and 2 days IL-4 stimulated U937 cells were simultaneously stained with 28 pM/test of Atto 647 Item-2 and 20 nM of Sytox Blue, then the cells were split into two sets. One set of cells were analyzed with flow cytometry right after staining without wash, the other set of cells were fixed by adding 16% of Paraformaldehyde (PFA) to the final concentration at 2% PFA for 10 minutes at room temperature followed by centrifugation at 350 g for 5 minutes. Then the cells were resuspended in PBS without Ca^2+. The fresh cells and stimulated cells with or without fixation were analyzed on day 0 and day 2 respectively. The cells were analyzed with NovoCyte Quanteon flow cytometry without wash.

| Molecule | staining pattern and frequencies of PS positive dying cells and dead cells (PS positive cells [1]) | calcium dependence of PS binding (PS positive cells [2]) |
| --- | --- | --- |
| Apotracker Green: cyclic peptide of SEQ ID NO: 1 [RKKWFW(BODIPY)G]; calcium-independent PS binding agent, commercial name Apotracker Green (cyclo(RKKWFW(BODIPY)G)) [reference compound] | comparable to each other |  |
| Item-2: PS binding compound derivative comprising SEQ ID NO: 2 [RKKWFWC], head-to-tail cyclized (head-to-tail cyclized) |  | Ca^2+ independent |
| Annexin V: recombinant protein, PS binding agent binding PS in the presence of calcium; used as Alexa 647 conjugate (protein, UniProt P08758 2-320, looked up, Alexa 647 label, used as Alexa 647 conjugate) Annexin A5: AQVLRGTVTDFPGFDERADAETLRKAMKGLGTDEESILTLLTSRSNAQRQEISAAFKTLFGRDLLDDLKSELTGKFEKLIVALMKPSRLYDAYELKHALKGAGTNEKVLTEIIASRTPEELRAIKQVYEEEYGSSLEDDVVGDTSGYYQRMLVVLLQANRDPDAGIDEAQVEQDAQALFQAGELKWGTDEEKFITIFGTRSVSHLRKVFDKYMTISGFQIEETIDRETSGNLEQLLLAVVKSIRSIPAYLAETLYYAMKGAGTDDHTLIRVMVSRSEIDLFNIRKEFRKNFATSLYSMIKGDTSGDYKKALLLLCGEDD | comparable to each other |  |
